ChEMBL document CHEMBL3396994, “Novel 4-aryl-pyrido[1,2-c]pyrimidines with dual SSRI and 5-HT1A activity. Part 4” (Eur J Med Chem, 2015)

Assays:
[1] = biological target: T1, 5-hydroxytryptamine receptor 1A (Rattus norvegicus, UniProt P19327); experiment: Displacement of [3H]8-OH-DPAT from rat brain hippocampus 5-HT1A receptor by radioligand binding assay
T1 sequence (P19327 whole entry): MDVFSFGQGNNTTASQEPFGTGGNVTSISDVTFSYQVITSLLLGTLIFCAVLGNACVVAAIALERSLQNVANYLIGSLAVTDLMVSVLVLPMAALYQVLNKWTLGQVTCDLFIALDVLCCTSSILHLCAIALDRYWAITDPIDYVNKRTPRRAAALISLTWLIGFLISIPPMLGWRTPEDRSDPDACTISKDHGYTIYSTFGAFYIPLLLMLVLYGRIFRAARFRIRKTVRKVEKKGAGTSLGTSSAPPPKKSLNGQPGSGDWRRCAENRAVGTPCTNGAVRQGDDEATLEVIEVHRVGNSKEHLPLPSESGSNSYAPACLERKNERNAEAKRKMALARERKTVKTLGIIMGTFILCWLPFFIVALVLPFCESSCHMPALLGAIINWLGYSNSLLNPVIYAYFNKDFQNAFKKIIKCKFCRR

[2] = biological target: Sodium-dependent serotonin transporter (Rattus norvegicus, UniProt P31652); experiment: Displacement of [3H]citalopram from rat brain cerebral cortex SERT by liquid scintillation counting analysis; format: tissue-based
[3] = Metabolic stability in human liver microsomes assessed as compound remaining at 10 uM after 60 mins by LC/MS analysis; format: ADME; details: read-out: Stability
[4] = Half life in human liver microsomes at 10 uM by LC/MS analysis; format: ADME

Sequence of Sodium-dependent serotonin transporter (P31652 whole entry): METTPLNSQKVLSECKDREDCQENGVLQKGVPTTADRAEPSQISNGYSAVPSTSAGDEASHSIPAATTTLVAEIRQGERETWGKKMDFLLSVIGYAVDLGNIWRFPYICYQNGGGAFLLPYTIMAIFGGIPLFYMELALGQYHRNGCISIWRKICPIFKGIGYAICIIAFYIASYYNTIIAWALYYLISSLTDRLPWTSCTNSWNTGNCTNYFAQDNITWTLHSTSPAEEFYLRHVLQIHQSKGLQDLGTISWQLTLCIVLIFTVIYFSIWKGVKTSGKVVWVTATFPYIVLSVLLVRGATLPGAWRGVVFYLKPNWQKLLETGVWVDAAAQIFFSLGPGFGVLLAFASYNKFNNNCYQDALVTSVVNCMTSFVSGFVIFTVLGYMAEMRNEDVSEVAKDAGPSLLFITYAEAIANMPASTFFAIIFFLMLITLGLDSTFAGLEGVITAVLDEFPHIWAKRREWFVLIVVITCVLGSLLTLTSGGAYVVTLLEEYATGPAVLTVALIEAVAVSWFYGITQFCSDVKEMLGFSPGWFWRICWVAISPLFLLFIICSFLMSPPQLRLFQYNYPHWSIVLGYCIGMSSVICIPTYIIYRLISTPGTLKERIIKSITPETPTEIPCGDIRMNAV

Compound | Ki [1] | Ki [2] | remaining at 1 h, 10 µM [3] | half-life at 10 µM [4]
COc1ccccc1-c1c(=O)n(CCCCN2CC=C(c3c[nH]c4ccc(F)cc34)CC2)c(=O)n2ccccc12 | 251 nM | 20.8 nM | 67.9% | 1.57 h
O=c1c(-c2ccccc2)c2ccccn2c(=O)n1CCCCN1CCC(c2c[nH]c3ccc(F)cc23)CC1 | 12.4 nM | 15.6 nM | – | –
Cc1ccc(-c2c(=O)n(CCCCN3CCC(c4c[nH]c5ccc(F)cc45)CC3)c(=O)n3ccccc23)cc1 | 38.5 nM | 27.4 nM | – | –
O=c1c(-c2ccc(Cl)cc2)c2ccccn2c(=O)n1CCCCN1CCC(c2c[nH]c3ccc(F)cc23)CC1 | 84.4 nM | 25.5 nM | – | –
O=c1c(-c2ccccc2F)c2ccccn2c(=O)n1CCCCN1CCC(c2c[nH]c3ccc(F)cc23)CC1 | 9.2 nM | 25.7 nM | – | –
O=c1c(-c2ccccc2Cl)c2ccccn2c(=O)n1CCCCN1CCC(c2c[nH]c3ccc(F)cc23)CC1 | 15.9 nM | 88.6 nM | – | –
COc1ccccc1-c1c(=O)n(CCCCN2CCC(c3c[nH]c4ccc(F)cc34)CC2)c(=O)n2ccccc12 | 5.6 nM | 20.7 nM | – | –
O=c1c(-c2ccccc2)c2ccccn2c(=O)n1CCCCN1CC=C(c2c[nH]c3ccc(F)cc23)CC1 | 118 nM | 27.1 nM | 63.4% | 1.37 h
Cc1ccc(-c2c(=O)n(CCCCN3CC=C(c4c[nH]c5ccc(F)cc45)CC3)c(=O)n3ccccc23)cc1 | 153 nM | 30.3 nM | – | –
COc1ccc(-c2c(=O)n(CCCCN3CC=C(c4c[nH]c5ccc(F)cc45)CC3)c(=O)n3ccccc23)cc1 | 81.7 nM | 15.6 nM | – | –
O=c1c(-c2ccc(Cl)cc2)c2ccccn2c(=O)n1CCCCN1CC=C(c2c[nH]c3ccc(F)cc23)CC1 | 265 nM | 58.2 nM | 50.2% | 1 h
O=c1c(-c2ccc(F)cc2)c2ccccn2c(=O)n1CCCCN1CC=C(c2c[nH]c3ccc(F)cc23)CC1 | 220 nM | 11.3 nM | – | –
O=c1c(-c2ccccc2F)c2ccccn2c(=O)n1CCCCN1CC=C(c2c[nH]c3ccc(F)cc23)CC1 | 116 nM | 3.9 nM | – | –
O=c1c(-c2ccccc2Cl)c2ccccn2c(=O)n1CCCCN1CC=C(c2c[nH]c3ccc(F)cc23)CC1 | 127 nM | 5.2 nM | – | –
Cc1ccccc1-c1c(=O)n(CCCCN2CC=C(c3c[nH]c4ccc(F)cc34)CC2)c(=O)n2ccccc12 | 295 nM | 58.8 nM | 60.5% | 1.26 h
O=c1c(-c2ccccc2)c2ccccn2c(=O)n1CCCCN1CC=C(c2c[nH]c3ccc(Cl)cc23)CC1 | 126 nM | 322 nM | – | –

Compound | Ki [1] | Ki [2] | remaining at 1 h, 10 µM [3] | half-life at 10 µM [4]
Cc1ccc(-c2c(=O)n(CCCCN3CC=C(c4c[nH]c5ccc(Cl)cc45)CC3)c(=O)n3ccccc23)cc1 | 267 nM | 408 nM | 64.3% | 1.41 h
COc1ccc(-c2c(=O)n(CCCCN3CC=C(c4c[nH]c5ccc(Cl)cc45)CC3)c(=O)n3ccccc23)cc1 | 278 nM | 312 nM | – | –
O=c1c(-c2ccc(F)cc2)c2ccccn2c(=O)n1CCCCN1CC=C(c2c[nH]c3ccc(Cl)cc23)CC1 | 106 nM | 329 nM | – | –
O=c1c(-c2ccccc2F)c2ccccn2c(=O)n1CCCCN1CC=C(c2c[nH]c3ccc(Cl)cc23)CC1 | 97.1 nM | 435 nM | – | –
O=c1c(-c2ccccc2Cl)c2ccccn2c(=O)n1CCCCN1CC=C(c2c[nH]c3ccc(Cl)cc23)CC1 | 74.4 nM | 774 nM | – | –
Cc1ccccc1-c1c(=O)n(CCCCN2CC=C(c3c[nH]c4ccc(Cl)cc34)CC2)c(=O)n2ccccc12 | 212 nM | 740 nM | – | –
COc1ccccc1-c1c(=O)n(CCCCN2CC=C(c3c[nH]c4ccc(Cl)cc34)CC2)c(=O)n2ccccc12 | 97.8 nM | 718 nM | 55.6% | 1.13 h
O=c1c(-c2ccccc2)c2ccccn2c(=O)n1CCCCN1CC=C(c2c[nH]c3ccc(Br)cc23)CC1 | 40.1 nM | 840 nM | 63.2% | 1.37 h
Cc1ccc(-c2c(=O)n(CCCCN3CC=C(c4c[nH]c5ccc(Br)cc45)CC3)c(=O)n3ccccc23)cc1 | 145 nM | 949 nM | – | –
COc1ccc(-c2c(=O)n(CCCCN3CC=C(c4c[nH]c5ccc(Br)cc45)CC3)c(=O)n3ccccc23)cc1 | 23.1 nM | 326 nM | – | –
O=c1c(-c2ccc(Cl)cc2)c2ccccn2c(=O)n1CCCCN1CC=C(c2c[nH]c3ccc(Br)cc23)CC1 | 61.6 nM | 1000 nM | – | –
O=c1c(-c2ccc(F)cc2)c2ccccn2c(=O)n1CCCCN1CC=C(c2c[nH]c3ccc(Br)cc23)CC1 | 79.1 nM | 404 nM | 51.4% | 1.03 h
O=c1c(-c2ccccc2F)c2ccccn2c(=O)n1CCCCN1CC=C(c2c[nH]c3ccc(Br)cc23)CC1 | 32.5 nM | 836 nM | – | –
Cc1ccccc1-c1c(=O)n(CCCCN2CC=C(c3c[nH]c4ccc(Br)cc34)CC2)c(=O)n2ccccc12 | 71.5 nM | 879 nM | – | –
COc1ccccc1-c1c(=O)n(CCCCN2CC=C(c3c[nH]c4ccc(Br)cc34)CC2)c(=O)n2ccccc12 | 33.1 nM | 1200 nM | – | –
O=c1c(-c2ccc(F)cc2)c2ccccn2c(=O)n1CCCCN1CCC(c2c[nH]c3ccc(F)cc23)CC1 | 12.8 nM | 19.4 nM | – | –
